From ChEMBL document CHEMBL1151256, “New alkaloids and a tetraflavonoid from Cephalotaxus wilsoniana” (J Nat Prod, 2004)
Converted amounts (≈) assume the structure as drawn.

Experiments:
[1] = tested on: HepG2; experiment: Cytotoxicity against human HepG2 cells after 6 days by MTT assay; format: functional, cell-based; conditions: HepG2, 144 h
[2] = Cytotoxicity against human Hep3B cells after 6 days by MTT assay; format: functional, cell-based, Hep 3B2; conditions: 144 h
[3] = tested on: HT-29; experiment: Cytotoxicity against human HT-29 cells after 6 days by MTT assay; format: functional, cell-based; conditions: HT-29, 144 h
[4] = tested on: MCF7; experiment: Cytotoxicity against human MCF7 cells after 6 days by MTT assay; format: functional, cell-based; conditions: MCF7, 144 h

Which results are given for COc1cc2c(cc1OC)C13C[C@@H](OC)C=C[C@@]14O[C@H]4C(=O)N3CCC2 (some centres undefined)?
IC50 [1]: 52 mg/L (≈ 145 µM); IC50 [2]: 52 mg/L (≈ 145 µM); IC50 [3]: 24.4 mg/L (≈ 68.3 µM); IC50 [4]: 42 mg/L (≈ 118 µM)
